The subject of assay [1] is A549. In words: Growth inhibition of human A549 cells after 48 hrs by sulforhodamine B assay. To be noted: A549, 48 h. Format: functional.
Assay [2] in a line: Inhibition of TNF-alpha-induced NFkappaB nuclear translocation in human A549 cells preincubated for 30 mins before TNFalpha challenge and measured 30 post TNFalpha challenge by fluorescence method. Format: cell-based.

These results are taken from ChEMBL document CHEMBL1799938, “Synthesis and identification of new 4-arylidene curcumin analogues as potential anticancer agents targeting nuclear factor-κB signaling pathway” (J Med Chem, 2010).

For orientation: GI50 means the concentration at which growth is held to half of that of the control. The low end stands for greater sensitivity of the cells, the high end for lower sensitivity of the cells. The term IC50 denotes the point on the concentration scale where inhibition reaches its midpoint. High values mean weaker potency in that assay, low ones greater potency in that assay.

Each structure is given as a SMILES string. A value given as a limit tells only on which side of the number the result lay.

Take `COc1ccc(/C=C/C(=O)C(=Cc2cc(OC)c(OC)c(OC)c2)C(=O)/C=C/c2ccc(OC)c(OC)c2)cc1OC`: the GI50 in assay [1] turned out to be 230 nM. In addition, the midpoint of inhibition in assay [2], the IC50, lay at 1800 nM.

Molecule `CCc1ccc(C=C(C(=O)/C=C/c2ccc(O)c(OC)c2)C(=O)/C=C/c2ccc(O)c(OC)c2)cc1` had a GI50 in assay [1] of 550 nM. Besides, in assay [2], the IC50 is 1800 nM.

The molecule `COc1ccc(OC)c(C=C(C(=O)/C=C/c2ccc(O)c(OC)c2)C(=O)/C=C/c2ccc(O)c(OC)c2)c1` showed a GI50 in assay [1] of 670 nM. In assay [2], this molecule registered an IC50 of 1400 nM.

On to `COc1ccc(/C=C/C(=O)/C=C(O)/C=C/c2ccc(OC)c(OC)c2)cc1OC` [DIMETHYLCURCUMIN], for which the GI50 in assay [1] is 5800 nM. Also, the IC50 in assay [2] is > 40000 nM.

Molecule `COc1ccc(/C=C/C(=O)C(=Cc2cc(OC)c(OC)c(OC)c2)C(=O)/C=C/c2ccc(OC)cc2)cc1` registered a GI50 in assay [1] of 1120 nM. The molecule further showed an IC50 in assay [2] of 3800 nM.

For the molecule `COc1ccc(/C=C/C(=O)C(=Cc2ccc(OC)c(OC)c2)C(=O)/C=C/c2ccc(OC)cc2)cc1`, the GI50 in assay [1] is 930 nM. The IC50 in assay [2] was found to be 3300 nM.

In turn, `COc1ccc(C=C(C(=O)/C=C/c2ccc(OC)c(OC)c2)C(=O)/C=C/c2ccc(OC)c(OC)c2)c(OC)c1` showed a GI50 in assay [1] of 650 nM. The IC50 in assay [2] came to 1700 nM.

As for `COc1ccc(/C=C/C(=O)C(=Cc2ccc(O)cc2)C(=O)/C=C/c2ccc(OC)c(OC)c2)cc1OC`, the GI50 in assay [1] turned out to be 420 nM. In assay [2], this molecule registered an IC50 of 1400 nM.

In assay [1], `COc1ccc(/C=C/C(=O)C(=Cc2ccc(C)o2)C(=O)/C=C/c2ccc(OC)c(OC)c2)cc1OC` returned a GI50 of 1310 nM. The same molecule yielded an IC50 in assay [2] of 2800 nM.

`COc1ccc(OC)c(C=C(C(=O)/C=C/c2ccc(OC)c(OC)c2)C(=O)/C=C/c2ccc(OC)c(OC)c2)c1` displayed a GI50 in assay [1] of 530 nM. This molecule came in with an IC50 in assay [2] of 1500 nM.

For the molecule `COc1cc(/C=C/C(=O)C(=Cc2ccc(F)cc2)C(=O)/C=C/c2ccc(O)c(OC)c2)ccc1O`, the GI50 in assay [1] was found to be 780 nM. The midpoint of inhibition in assay [2], the IC50, lay at 2700 nM.

`COc1ccc(C=C(C(=O)/C=C/c2ccc(O)c(OC)c2)C(=O)/C=C/c2ccc(O)c(OC)c2)c(OC)c1` came in with a GI50 in assay [1] of 690 nM. In addition, the IC50 in assay [2] was 1000 nM.

As to `COc1cc(/C=C/C(=O)C(=CO)C(=O)/C=C/c2ccc(OC(C)=O)c(OC)c2)ccc1OC(C)=O`, the GI50 in assay [1] is > 25000 nM. This molecule displayed an IC50 in assay [2] of 39300 nM.

For `COc1ccc(/C=C/C(=O)C(=CO)C(=O)/C=C/c2ccc(OC)c(OC)c2)cc1OC`, the GI50 in assay [1] is > 25000 nM. Also, in assay [2], the IC50 was > 40000 nM.

In assay [1], `COc1ccc(/C=C/C(=O)C(=Cc2cccc(F)c2)C(=O)/C=C/c2ccc(OC)c(OC)c2)cc1OC` displayed a 50% growth inhibitory concentration (GI50) of 580 nM. This molecule returned an IC50 in assay [2] of 1300 nM.

In the case of `O=C(/C=C(O)/C=C/c1ccco1)/C=C/c1ccco1`, the GI50 in assay [1] is > 25000 nM. Further, the IC50 in assay [2] is > 40000 nM.

`COc1ccc(/C=C/C(=O)C(=Cc2cccc(OC)c2OC)C(=O)/C=C/c2ccc(OC)c(OC)c2)cc1OC` yielded a GI50 in assay [1] of 670 nM. Also, it took 1500 nM to reach half-maximal inhibition in assay [2] (IC50).

In assay [1], `CCc1ccc(C=C(C(=O)/C=C/c2ccc(OC)c(OC)c2)C(=O)/C=C/c2ccc(OC)c(OC)c2)cc1` had a GI50 of 630 nM. The same molecule returned an IC50 in assay [2] of 4900 nM.

In assay [1], `COc1cc(C=C(C(=O)/C=C/c2ccc(O)c(OC)c2)C(=O)/C=C/c2ccc(O)c(OC)c2)ccc1O` came in with a GI50 of 2000 nM. In assay [2], this molecule showed an IC50 of 1000 nM.

In assay [1], `COc1cc(/C=C/C(=O)/C(=C/c2cc(OC)c(OC)c(OC)c2)C(C)=O)cc(OC)c1OC` showed a GI50 of 530 nM. This molecule displayed an IC50 in assay [2] of 4800 nM.

`COc1cc(/C=C/C(=O)/C=C/c2sccc2C)cc(OC)c1OC` had a GI50 in assay [1] of 9310 nM. Besides, the IC50 in assay [2] was 24300 nM.

Consider `COc1ccc(C=C(C(=O)/C=C/c2cc(OC)c(OC)c(OC)c2)C(=O)/C=C/c2cc(OC)c(OC)c(OC)c2)cc1OC`, for which the GI50 in assay [1] amounted to 370 nM. Further, in assay [2], half-maximal inhibition (IC50) required 1000 nM.

Turning to `COc1ccc(/C=C/C(=O)C(=CO)C(=O)/C=C/c2ccc(OC)cc2)cc1`, the GI50 in assay [1] was > 25000 nM. In assay [2], the IC50 was > 40000 nM.
